{
  "source": "patent US11414425B2",
  "about": "(priority 2018, dated 2022)",
  "data": [
    {"molecular_target": "α5β3γ2 GABAA receptors (Homo sapiens, UniProt P18507+P31644)", "sequence (P31644 32-462)": "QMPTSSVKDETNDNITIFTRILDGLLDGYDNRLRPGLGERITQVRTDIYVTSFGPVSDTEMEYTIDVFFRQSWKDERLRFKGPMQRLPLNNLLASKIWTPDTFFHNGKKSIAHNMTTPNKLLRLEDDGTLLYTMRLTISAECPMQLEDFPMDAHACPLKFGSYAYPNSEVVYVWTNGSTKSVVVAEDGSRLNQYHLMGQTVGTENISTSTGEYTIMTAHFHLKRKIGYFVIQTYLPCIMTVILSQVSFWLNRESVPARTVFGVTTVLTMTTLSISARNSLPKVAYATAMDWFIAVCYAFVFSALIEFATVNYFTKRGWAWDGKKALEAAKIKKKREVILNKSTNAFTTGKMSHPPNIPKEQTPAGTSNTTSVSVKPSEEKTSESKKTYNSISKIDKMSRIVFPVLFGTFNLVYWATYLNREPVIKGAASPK", "sequence (P28472 26-473 partner)": "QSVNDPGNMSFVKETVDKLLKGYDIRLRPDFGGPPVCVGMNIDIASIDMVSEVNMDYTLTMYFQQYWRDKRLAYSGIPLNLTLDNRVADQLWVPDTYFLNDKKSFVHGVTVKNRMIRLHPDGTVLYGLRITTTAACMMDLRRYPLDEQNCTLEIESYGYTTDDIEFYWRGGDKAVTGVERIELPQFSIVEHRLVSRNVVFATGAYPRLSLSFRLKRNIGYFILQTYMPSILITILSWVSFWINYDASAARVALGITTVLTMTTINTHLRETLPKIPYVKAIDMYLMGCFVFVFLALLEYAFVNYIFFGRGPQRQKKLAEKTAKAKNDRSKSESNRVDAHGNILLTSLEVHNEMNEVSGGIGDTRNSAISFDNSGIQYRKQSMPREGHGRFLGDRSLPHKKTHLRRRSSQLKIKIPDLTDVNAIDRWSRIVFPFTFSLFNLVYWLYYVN", "sequence (P18507 40-475)": "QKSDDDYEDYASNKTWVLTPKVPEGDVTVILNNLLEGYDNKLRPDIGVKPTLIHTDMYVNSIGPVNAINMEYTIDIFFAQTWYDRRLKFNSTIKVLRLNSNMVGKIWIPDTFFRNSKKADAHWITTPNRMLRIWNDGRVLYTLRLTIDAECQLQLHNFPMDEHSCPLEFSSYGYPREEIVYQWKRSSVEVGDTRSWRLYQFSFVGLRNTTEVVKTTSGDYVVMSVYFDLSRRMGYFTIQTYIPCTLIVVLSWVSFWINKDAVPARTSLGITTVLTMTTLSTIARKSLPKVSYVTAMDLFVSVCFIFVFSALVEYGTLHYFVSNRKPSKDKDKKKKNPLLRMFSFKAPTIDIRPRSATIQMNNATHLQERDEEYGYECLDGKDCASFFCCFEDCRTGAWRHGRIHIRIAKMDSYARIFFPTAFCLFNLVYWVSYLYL", "test": "[3H]Ro15-1788 binding, membranes of Ltk cells stably expressing α5β3γ2 GABAA receptors", "details": "ranges; inhibition of [3H]Ro15-1788 binding", "units": {"Ki": "nM"}, "values": [
      {"compound": "CCc1cncc(C#Cc2ncn3c2Cc2c(COC)nnn2-c2cc(Cl)ccc2-3)c1", "note": "[Compound 638]", "Ki": "< 100"},
      {"compound": "Clc1ccc2c(c1)-n1nncc1Cc1c(C3=NC[C@@H](c4ccccc4)O3)ncn1-2", "note": "[Compound 514]", "Ki": "< 100"},
      {"compound": "COCc1nnc2n1Cc1c(C#Cc3ccnc(OC)c3)ncn1-c1ccc(OC)cc1-2", "note": "[Compound 567]", "Ki": "< 100"},
      {"compound": "COCc1nnc2n1Cc1c(C#Cc3ccc(OC)cc3)ncn1-c1ccc(Cl)cc1-2", "note": "[Compound 526]", "Ki": "< 100"},
      {"compound": "COc1ccc2c(c1)-n1nncc1Cc1c(C#Cc3ccn(C)n3)ncn1-2", "note": "[Compound 670]", "Ki": "< 100"},
      {"compound": "Cc1noc(-c2ncn3c2Cc2c(Cc4ccc(F)cc4)nnn2-c2cc(OC(F)F)ccc2-3)n1", "note": "[Compound 492]", "Ki": "< 100"},
      {"compound": "COCc1nnc2n1Cc1c(C#Cc3cnc4occc4c3)ncn1-c1ccc(Cl)cc1-2", "note": "[Compound 680]", "Ki": "< 100"},
      {"compound": "COCc1nnc2n1Cc1c(C#Cc3cncc(OC)c3)ncn1-c1ccc(OC)cc1-2", "note": "[Compound 566]", "Ki": "< 100"},
      {"compound": "COc1ccc2c(c1)-n1nncc1Cc1c(C3=N[C@H](c4ccccc4)CO3)ncn1-2", "note": "[Compound 290]", "Ki": "< 100"},
      {"compound": "Fc1ccc(C#Cc2ncn3c2Cc2cnnn2-c2cc(C(F)(F)F)ccc2-3)cc1", "note": "[Compound 501]", "Ki": "< 100"},
      {"compound": "FC(F)(F)c1ccc2c(c1)-n1nncc1Cc1c(C#CC3(c4ccccc4)CC3)ncn1-2", "note": "[Compound 503]", "Ki": "< 100"},
      {"compound": "COCc1nnn2c1Cc1c(C#Cc3cncc(C)c3)ncn1-c1ccc(Cl)cc1-2", "note": "[Compound 639]", "Ki": "< 100"},
      {"compound": "COc1ccc2c(c1)-n1nncc1Cc1c(C3=NCC(c4ccccn4)O3)ncn1-2", "note": "(stereo not shown) [Compound 628]", "Ki": "< 100"},
      {"compound": "Cc1noc(-c2ncn3c2Cc2c(Cc4cccc(F)c4)nnn2-c2cc(C(F)(F)F)ccc2-3)n1", "note": "[Compound 482]", "Ki": "< 100"},
      {"compound": "COc1ccc(C#Cc2ncn3c2Cc2cnnn2-c2cc(OC(F)F)ccc2-3)cn1", "note": "[Compound 555]", "Ki": "< 100"},
      {"compound": "Cc1ncc(C#Cc2ncn3c2Cc2cnnn2-c2cc(Cl)ccc2-3)n1C", "note": "[Compound 666]", "Ki": "< 100"},
      {"compound": "COCc1nnc2n1Cc1c(C#Cc3cnc(C)cn3)ncn1-c1ccc(Cl)cc1-2", "note": "[Compound 582]", "Ki": "< 100"},
      {"compound": "COc1ccc(C#Cc2ncn3c2Cc2cnnn2-c2cc(OC)ccc2-3)nc1", "note": "[Compound 531]", "Ki": "< 100"},
      {"compound": "COCc1nnc2n1Cc1c(C#Cc3ccc(=O)n(C)c3)ncn1-c1ccc(OC)cc1-2", "note": "[Compound 676]", "Ki": "< 100"},
      {"compound": "COc1ccc([C@@H]2COC(c3ncn4c3Cc3cnnn3-c3cc(OC)ccc3-4)=N2)cc1", "note": "[Compound 520]", "Ki": "< 100"},
      {"compound": "Cc1noc(-c2ncn3c2Cc2c(Cc4cccc(F)c4)nnn2-c2cc(OC(F)(F)F)ccc2-3)n1", "note": "[Compound 485]", "Ki": "< 100"},
      {"compound": "COc1ccc2c(c1)-n1nncc1Cc1c(C3=NC[C@@H](c4ccccc4)O3)ncn1-2", "note": "[Compound 512]", "Ki": "< 100"},
      {"compound": "Fc1ccc(C#Cc2ncn3c2Cc2cnnn2-c2cc(OC(F)F)ccc2-3)cc1", "note": "[Compound 500]", "Ki": "< 100"},
      {"compound": "COc1cccc(C2CN=C(c3ncn4c3Cc3cnnn3-c3cc(Cl)ccc3-4)O2)n1", "note": "(stereo not shown) [Compound 631]", "Ki": "< 100"},
      {"compound": "COCc1nnn2c1Cc1c(C#Cc3cnc(OC)s3)ncn1-c1ccc(Cl)cc1-2", "note": "[Compound 644]", "Ki": "< 100"},
      {"compound": "COCc1nnc2n1Cc1c(C#Cc3ccn(C)n3)ncn1-c1ccc(Cl)cc1-2", "note": "[Compound 683]", "Ki": "< 100"}
    ]},
    {"molecular_target": "T1, GABAA receptors (α5β2γ2) (Homo sapiens, UniProt P18507+P31644)", "T1 construct": "expressed in transfected cells", "T1 sequence (P31644 32-462)": "as the sequence (P31644 32-462) above", "T1 sequence (P47870 25-512, further chain)": "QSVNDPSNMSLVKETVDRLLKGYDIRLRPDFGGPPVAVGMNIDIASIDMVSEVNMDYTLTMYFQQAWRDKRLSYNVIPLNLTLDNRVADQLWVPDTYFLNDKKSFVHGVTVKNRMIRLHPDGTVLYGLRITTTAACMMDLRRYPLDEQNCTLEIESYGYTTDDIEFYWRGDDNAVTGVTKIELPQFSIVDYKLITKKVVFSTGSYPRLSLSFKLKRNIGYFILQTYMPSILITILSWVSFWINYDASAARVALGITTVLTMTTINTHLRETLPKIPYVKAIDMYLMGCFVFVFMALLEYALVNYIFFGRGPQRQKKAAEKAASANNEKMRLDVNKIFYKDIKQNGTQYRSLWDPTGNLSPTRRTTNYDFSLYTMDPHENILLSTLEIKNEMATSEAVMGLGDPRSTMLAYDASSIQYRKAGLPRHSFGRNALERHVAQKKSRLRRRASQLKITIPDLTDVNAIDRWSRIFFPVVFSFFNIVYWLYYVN", "T1 sequence (P18507 40-475)": "as the sequence (P18507 40-475) above", "test": "Positive allosteric modulator activity: potentiation of EC20 GABA current in oocytes", "assay_type": "cell-based", "details": "read-out: GABA α5 Functional Data (potentiation of EC20 GABA); @ 100 nM; ranges", "description": "On day 1, 1 ng/32 nL of GABAA α5β2γ2 cDNA was injected into one oocyte. Test starts on day 2. The cDNA injected to the oocytes was a mix of alpha, beta and gamma, their ratio is 1:1:10 (by weight) and the total weight of the mixed 3 subunits to be injected in one oocyte was 1 ng in 32 nl volume. The injected oocytes can also be tested on day 3. In such case, the cDNA amount injected to the oocytes should be reduced by 20%.\n1). 8 oocytes were placed in 8 chambers of OpusXpress and superfused with Modified Barth's Saline (MBS) at 3 mL/min. Glass electrodes back-filled with 3M KCl (0.5-3 megaohms) were used.\n1). New oocytes were used to run new test.\n3). […] Oocytes were washed with MBS for 5-10 min.\n4). […] Itest was divided by IGABA to obtain potentiation (%).\nTest Compounds at Multiple Doses • 1). Repeat the above steps 1), 2) and 3) in the control test. • 2). […] Divide Itest by IGABA to obtain potentiation (%). • 3). Discard all tested oocytes, new oocytes were used and the above steps 1) and 2) were repeated to test second concentration of the same compound. Each oocyte was used for only one concentration test for a single test compound. The steps were repeated for other test compounds.", "units": {"activation at 0.1 µM": "%"}, "values": [
      {"compound": "CCc1cncc(C#Cc2ncn3c2Cc2c(COC)nnn2-c2cc(Cl)ccc2-3)c1", "note": "[Compound 638]", "activation at 0.1 µM": "> 50"},
      {"compound": "Clc1ccc2c(c1)-n1nncc1Cc1c(C3=NC[C@@H](c4ccccc4)O3)ncn1-2", "note": "[Compound 514]", "activation at 0.1 µM": "5 to 20"},
      {"compound": "COCc1nnc2n1Cc1c(C#Cc3ccnc(OC)c3)ncn1-c1ccc(OC)cc1-2", "note": "[Compound 567]", "activation at 0.1 µM": "5 to 20"},
      {"compound": "COCc1nnc2n1Cc1c(C#Cc3ccc(OC)cc3)ncn1-c1ccc(Cl)cc1-2", "note": "[Compound 526]", "activation at 0.1 µM": "5 to 20"},
      {"compound": "COc1ccc2c(c1)-n1nncc1Cc1c(C#Cc3ccn(C)n3)ncn1-2", "note": "[Compound 670]", "activation at 0.1 µM": "> 50"},
      {"compound": "Cc1noc(-c2ncn3c2Cc2c(Cc4ccc(F)cc4)nnn2-c2cc(OC(F)F)ccc2-3)n1", "note": "[Compound 492]", "activation at 0.1 µM": "20 to 50"},
      {"compound": "COCc1nnc2n1Cc1c(C#Cc3cnc4occc4c3)ncn1-c1ccc(Cl)cc1-2", "note": "[Compound 680]", "activation at 0.1 µM": "20 to 50"},
      {"compound": "COCc1nnc2n1Cc1c(C#Cc3cncc(OC)c3)ncn1-c1ccc(OC)cc1-2", "note": "[Compound 566]", "activation at 0.1 µM": "5 to 20"},
      {"compound": "COc1ccc2c(c1)-n1nncc1Cc1c(C3=N[C@H](c4ccccc4)CO3)ncn1-2", "note": "[Compound 290]", "activation at 0.1 µM": "20 to 50"},
      {"compound": "Fc1ccc(C#Cc2ncn3c2Cc2cnnn2-c2cc(C(F)(F)F)ccc2-3)cc1", "note": "[Compound 501]", "activation at 0.1 µM": "20 to 50"},
      {"compound": "FC(F)(F)c1ccc2c(c1)-n1nncc1Cc1c(C#CC3(c4ccccc4)CC3)ncn1-2", "note": "[Compound 503]", "activation at 0.1 µM": "5 to 20"},
      {"compound": "COCc1nnn2c1Cc1c(C#Cc3cncc(C)c3)ncn1-c1ccc(Cl)cc1-2", "note": "[Compound 639]", "activation at 0.1 µM": "20 to 50"},
      {"compound": "COc1ccc2c(c1)-n1nncc1Cc1c(C3=NCC(c4ccccn4)O3)ncn1-2", "note": "(stereo not shown) [Compound 628]", "activation at 0.1 µM": "20 to 50"},
      {"compound": "Cc1noc(-c2ncn3c2Cc2c(Cc4cccc(F)c4)nnn2-c2cc(C(F)(F)F)ccc2-3)n1", "note": "[Compound 482]", "activation at 0.1 µM": "20 to 50"},
      {"compound": "COc1ccc(C#Cc2ncn3c2Cc2cnnn2-c2cc(OC(F)F)ccc2-3)cn1", "note": "[Compound 555]", "activation at 0.1 µM": "5 to 20"},
      {"compound": "Cc1ncc(C#Cc2ncn3c2Cc2cnnn2-c2cc(Cl)ccc2-3)n1C", "note": "[Compound 666]", "activation at 0.1 µM": "20 to 50"},
      {"compound": "COCc1nnc2n1Cc1c(C#Cc3cnc(C)cn3)ncn1-c1ccc(Cl)cc1-2", "note": "[Compound 582]", "activation at 0.1 µM": "> 50"},
      {"compound": "COc1ccc(C#Cc2ncn3c2Cc2cnnn2-c2cc(OC)ccc2-3)nc1", "note": "[Compound 531]", "activation at 0.1 µM": "5 to 20"},
      {"compound": "COCc1nnc2n1Cc1c(C#Cc3ccc(=O)n(C)c3)ncn1-c1ccc(OC)cc1-2", "note": "[Compound 676]", "activation at 0.1 µM": "5 to 20"},
      {"compound": "COc1ccc([C@@H]2COC(c3ncn4c3Cc3cnnn3-c3cc(OC)ccc3-4)=N2)cc1", "note": "[Compound 520]", "activation at 0.1 µM": "5 to 20"},
      {"compound": "Cc1noc(-c2ncn3c2Cc2c(Cc4cccc(F)c4)nnn2-c2cc(OC(F)(F)F)ccc2-3)n1", "note": "[Compound 485]", "activation at 0.1 µM": "5 to 20"},
      {"compound": "COc1ccc2c(c1)-n1nncc1Cc1c(C3=NC[C@@H](c4ccccc4)O3)ncn1-2", "note": "[Compound 512]", "activation at 0.1 µM": "5 to 20"},
      {"compound": "Fc1ccc(C#Cc2ncn3c2Cc2cnnn2-c2cc(OC(F)F)ccc2-3)cc1", "note": "[Compound 500]", "activation at 0.1 µM": "5 to 20"},
      {"compound": "COc1cccc(C2CN=C(c3ncn4c3Cc3cnnn3-c3cc(Cl)ccc3-4)O2)n1", "note": "(stereo not shown) [Compound 631]", "activation at 0.1 µM": "5 to 20"},
      {"compound": "COCc1nnn2c1Cc1c(C#Cc3cnc(OC)s3)ncn1-c1ccc(Cl)cc1-2", "note": "[Compound 644]", "activation at 0.1 µM": "20 to 50"},
      {"compound": "COCc1nnc2n1Cc1c(C#Cc3ccn(C)n3)ncn1-c1ccc(Cl)cc1-2", "note": "[Compound 683]", "activation at 0.1 µM": "> 50"}
    ]}
  ]
}
